Where two headings read alike, the source gives them in different places. Positions of bridges follow the written chain, without caps; N, C: chain ends. Residues, ends and D or L forms follow the SMILES beside them.
Experiments:
human IR-A (holoIR-A) = molecular target: T1, human IR-A (holoIR-A) (Homo sapiens, UniProt P06213); experiment: holoIR-A competitive radioligand binding assay (scintillation proximity assay); settings: for Ki: IM172N22(-) mutant peptide set; for reduction in ki for hIR-A on substitution: relative to control peptide IM172N22 devoid of N-terminal phenylacetylation
T1 construct: expressed in transfected cells; host or cells: HEK293 (ATCC #CRL-1573), stably transfected; membrane preparation
T1 sequence (P06213 28-1370 isoform P06213-2 limits assumed): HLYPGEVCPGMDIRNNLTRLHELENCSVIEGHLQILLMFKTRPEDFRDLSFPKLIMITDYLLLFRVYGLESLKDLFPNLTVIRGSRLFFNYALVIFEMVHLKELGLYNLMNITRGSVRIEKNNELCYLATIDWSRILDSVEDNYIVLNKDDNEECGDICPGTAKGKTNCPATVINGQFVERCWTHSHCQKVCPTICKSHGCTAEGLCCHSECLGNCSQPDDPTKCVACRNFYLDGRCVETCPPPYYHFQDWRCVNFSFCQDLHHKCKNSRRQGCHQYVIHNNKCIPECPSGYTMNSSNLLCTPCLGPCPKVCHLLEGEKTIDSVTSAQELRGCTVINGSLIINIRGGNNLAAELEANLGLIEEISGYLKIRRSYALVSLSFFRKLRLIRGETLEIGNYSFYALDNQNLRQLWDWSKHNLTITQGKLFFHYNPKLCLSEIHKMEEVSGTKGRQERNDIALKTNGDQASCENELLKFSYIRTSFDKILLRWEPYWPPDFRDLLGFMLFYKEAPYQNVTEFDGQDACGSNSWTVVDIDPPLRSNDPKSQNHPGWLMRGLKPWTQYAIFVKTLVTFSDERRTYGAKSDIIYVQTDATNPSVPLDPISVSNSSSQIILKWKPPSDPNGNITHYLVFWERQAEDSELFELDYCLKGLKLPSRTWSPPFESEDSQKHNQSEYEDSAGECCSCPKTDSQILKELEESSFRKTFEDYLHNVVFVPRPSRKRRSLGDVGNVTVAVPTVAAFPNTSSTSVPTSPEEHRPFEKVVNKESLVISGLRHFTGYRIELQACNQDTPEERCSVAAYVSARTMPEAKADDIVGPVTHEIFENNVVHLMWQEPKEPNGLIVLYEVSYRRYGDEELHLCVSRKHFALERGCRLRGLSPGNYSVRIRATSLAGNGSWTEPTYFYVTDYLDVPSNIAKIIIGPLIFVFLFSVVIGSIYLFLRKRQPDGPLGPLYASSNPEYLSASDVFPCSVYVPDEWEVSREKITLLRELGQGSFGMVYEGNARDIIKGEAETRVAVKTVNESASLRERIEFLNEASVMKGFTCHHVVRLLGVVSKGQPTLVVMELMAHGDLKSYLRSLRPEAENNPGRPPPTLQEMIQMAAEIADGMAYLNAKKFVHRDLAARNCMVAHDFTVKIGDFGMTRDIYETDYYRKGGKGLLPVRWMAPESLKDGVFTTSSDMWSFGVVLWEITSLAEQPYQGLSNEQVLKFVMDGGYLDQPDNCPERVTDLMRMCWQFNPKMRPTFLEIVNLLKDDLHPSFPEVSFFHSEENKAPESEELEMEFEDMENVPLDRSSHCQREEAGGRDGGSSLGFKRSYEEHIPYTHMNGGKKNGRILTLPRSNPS
T1 sequence (P06213 763-1382 partner limits assumed): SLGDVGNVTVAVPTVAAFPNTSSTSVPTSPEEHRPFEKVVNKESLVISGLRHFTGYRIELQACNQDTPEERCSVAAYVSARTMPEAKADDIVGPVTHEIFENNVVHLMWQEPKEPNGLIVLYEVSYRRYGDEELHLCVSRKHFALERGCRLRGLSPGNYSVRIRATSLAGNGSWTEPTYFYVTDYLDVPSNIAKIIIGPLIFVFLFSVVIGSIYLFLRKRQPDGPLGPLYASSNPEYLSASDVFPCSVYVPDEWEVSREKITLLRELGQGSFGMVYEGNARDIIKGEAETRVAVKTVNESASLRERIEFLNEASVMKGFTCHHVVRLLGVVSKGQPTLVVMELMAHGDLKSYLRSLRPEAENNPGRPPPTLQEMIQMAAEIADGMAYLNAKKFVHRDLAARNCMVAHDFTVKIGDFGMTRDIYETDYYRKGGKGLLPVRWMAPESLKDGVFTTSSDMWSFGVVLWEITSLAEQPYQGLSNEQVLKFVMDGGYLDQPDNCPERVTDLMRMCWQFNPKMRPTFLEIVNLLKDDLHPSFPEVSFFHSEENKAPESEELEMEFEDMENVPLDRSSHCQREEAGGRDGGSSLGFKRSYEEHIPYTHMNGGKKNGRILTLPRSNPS
Description: Cellular membranes were prepared from human embryonic kidney (HEK293; ATCC #CRL-1573) cells stably transfected with cDNA corresponding to human IR-A (holoIR-A) plus a C-terminal C9 tag ([…]) inserted within a pcDNA3.1 plasmid (Invitrogen), with positive clones selected with 800 μg mL^−1 neomycin and confirmed by Western Blot. Frozen cell pellets were thawed in ice-cold homogenization/resuspension buffer (50 mM Tris-HCl, pH 7.5) containing one cOmplete® protease inhibitor tablet with EDTA (Roche Diagnostics) per 50 mL buffer. Cells were homogenized with an overhead motor-driven Teflon-glass homogenizer using 15–20 strokes, followed by centrifugation at 1100 × g for 10 min at 4 °C. The supernatant was saved on ice, pellets were homogenized as before, and centrifuged at 1100 × g for 10 min at 4 °C. Both supernatants were combined and subsequently centrifuged at 35,000 × g for 60 min at 4 °C. The pellet was resuspended in buffer (4 to 5 mL g^−1 of starting cell paste) containing protease inhibitors and quick frozen in liquid nitrogen prior to storage at −80 °C. Protein concentration was determined using a BCA kit (Thermo Scientific) with bovine serum albumin (BSA) as standard.
The assays were performed with a scintillation proximity assay (SPA) method using polyvinyltoluene (PVT) wheat germ agglutinin-coupled SPA beads (Perkin Elmer). Assay buffer containing 50 mM Tris-HCl (pH 7.5), 150 mM NaCl, 0.1% w/v fatty-acid free BSA was used for all compound testing and reagent preparation. Ten-point concentration response curves with three-fold serial dilutions of test samples or controls were prepared in the assay buffer. […] Plates were sealed and shaken for 1 min on a plate shaker. Following a 10-h incubation and bead settling period at room temperature, radioactivity was determined using a MicroBeta Trilux scintillation counter (Perkin Elmer) and expressed as counts per minute (CPM). […] Samples were tested in three independent assay runs on three different days.
All test sample concentration responses were normalized to the control response and calculated as a percent of the maximal response after correcting for nonspecific binding as shown below: %Specific Inhibition=100%−[(CPM−MIN)/(MAX−MIN)×100%]
Percent specific binding (y-axis) was plotted vs log concentration of compound (x-axis) using Prism Version 9.3.1 (GraphPad Software). Individual measurements are provided as Source Data.

[1] = molecular target: T2, human holoIR-A over-expressed in HEK293 cells (Homo sapiens, UniProt P06213); experiment: Inhibition of hIR phosphorylation by peptides, co-incubated with BHI at its EC50 (ELISA); assay type: cell-based; settings: for hIRA Phosph IC50 Run 1 / hIRA Phosph IC50 Run 2 / hIRA Phosph IC50 Run 3: inhibition of insulin-stimulated phosphorylation; for hIRA Phosph IC50 Run 1: BHI at its EC50, run 1; for hIRA Phosph IC50 Run 2: BHI at its EC50, run 2; for hIRA Phosph IC50 Run 3: BHI at its EC50, run 3; for IC50: read-out: hIRA Phosph IC50 Mean
T2 construct: expressed in transfected cells; host or cells: HEK293, stably transfected
T2 sequence (P06213 28-1370 isoform P06213-2 limits assumed): as the sequence (P06213 28-1370 isoform P06213-2 limits assumed) above
T2 sequence (P06213 763-1382 partner limits assumed): as the sequence (P06213 763-1382 partner limits assumed) above
Description: Phosphorylation was quantified using an ELISA technique. Ninety-six well, flat-bottom microplates (Greiner Bio-One) were pre-coated with 2 µg mL^−1 anti-C9 monoclonal antibody (Rho 1D4; University of British Columbia)[27] in 20 mM sodium carbonate, pH 9.6, at 4 °C for overnight prior to the assay. On the assay day, plates were washed 3× with 0.1% Tween in 50 mM Tris Buffer Saline, pH 7.5 (TBST), and then blocked for greater than 1 h at room temperature (RT) with 1% BSA (Sigma) in TBST.
Stably transfected HEK293 cells over-expressing human holoIR-A containing a C-terminal C9 epitope tag ([…]), were plated at 6 × 10^4 cells per well serum-starved using 0.1% BSA in DMEM (Gibco) for overnight at standard tissue culture condition. […] After a 15-min incubation in lysis buffer at 4 °C, the lysate was transferred to anti-C9 antibody coated capture plate (Rho 1D4; University of British Columbia)[27]. […] After a 1 h incubation at room temperature, the secondary antibody was removed by washing 3× with TBST. Signal detection occurred with the addition of TMB, an HRP substrate (Pierce). After 5–10 min, the reaction was stopped by adding an equal volume of 2 M H2SO4, and the absorbance readings at 450 nm (A450) were recorded using a Envision plate reader (PerkinElmer). Samples were tested in three independent assay runs on three different days.
Percent specific response (y-axis) was plotted versus the log concentration of compound (x-axis) using Prism Version 9.3.1 (GraphPad Software). Individual measurements are provided as Source Data.

[2] = mean of 3 runs, read-out: hIRA Binding Ki Mean
[3] = run 1, read-out: hIRA Binding Ki Run 1
[4] = run 2, read-out: hIRA Binding Ki Run 2
[5] = run 3, read-out: hIRA Binding Ki Run 3

SMILES	Ki (human IR-A (holoIR-A); [2]) [nM]	Ki (human IR-A (holoIR-A); [3]) [nM]	Ki (human IR-A (holoIR-A); [4]) [nM]	Ki (human IR-A (holoIR-A); [5]) [nM]	reduction in ki for hIR-A on substitution (human IR-A (holoIR-A))	hIRA Phosph IC50 Run 1 [1] [nM]	hIRA Phosph IC50 Run 2 [1] [nM]	hIRA Phosph IC50 Run 3 [1] [nM]	IC50 [1] [nM]
CC[C@H](C)[C@H](NC(=O)[C@H](C)NC(=O)[C@H](C)NC(=O)[C@H](Cc1c[nH]c2ccccc12)NC(=O)[C@H](CCC(=O)O)NC(=O)[C@H](CCC(=O)O)NC(=O)[C@H](CCC(=O)O)NC(=O)[C@H](CC(C)C)NC(=O)[C@H](CO)NC(C)=O)C(=O)N[C@@H](CCC(=O)O)C(=O)N[C@H]1CSSC[C@@H](C(=O)N2CCC[C@H]2C(=O)N2CCC[C@H]2C(=O)N[C@@H](CO)C(=O)N[C@@H](CCC(=O)O)C(=O)N[C@@H](CO)C(N)=O)NC(=O)[C@H](CCCNC(=N)N)NC(=O)CNC(=O)[C@H](Cc2ccc(O)cc2)NC(=O)[C@H](C(C)C)NC(=O)[C@H](CCC(=O)O)NC1=O [Peptide Q8A] (Ac-SLEEEWAAIECEVYGRCPPSES-NH2; disulfide 11-17)	6.05	5.17	6.67	6.31	lower than 5 fold	84	92	99	91.9
CC(=O)N[C@@H](CO)C(=O)N[C@@H](CC(C)C)C(=O)N[C@@H](CCC(=O)O)C(=O)N[C@@H](CCC(=O)O)C(=O)N[C@@H](CCC(=O)O)C(=O)N[C@@H](Cc1c[nH]c2ccccc12)C(=O)N[C@@H](C)C(=O)N[C@@H](CCC(N)=O)C(=O)N[C@@H](C)C(=O)N[C@@H](CCC(=O)O)C(=O)N[C@H]1CSSC[C@@H](C(=O)N2CCC[C@H]2C(=O)N2CCC[C@H]2C(=O)N[C@@H](CO)C(=O)N[C@@H](CCC(=O)O)C(=O)N[C@@H](CO)C(N)=O)NC(=O)[C@H](CCCNC(=N)N)NC(=O)CNC(=O)[C@H](Cc2ccc(O)cc2)NC(=O)[C@H](C(C)C)NC(=O)[C@H](CCC(=O)O)NC1=O [Peptide I9A] (Ac-SLEEEWAQAECEVYGRCPPSES-NH2; disulfide 11-17)	952	952	835	1068	–	4745	4291	4550	4530

More lines, in order of falling Ki (human IR-A (holoIR-A); [2]), values ahead:

Ki (human IR-A (holoIR-A); [2]) [nM]	Ki (human IR-A (holoIR-A); [3]) [nM]	Ki (human IR-A (holoIR-A); [4]) [nM]	Ki (human IR-A (holoIR-A); [5]) [nM]	reduction in ki for hIR-A on substitution (human IR-A (holoIR-A))	hIRA Phosph IC50 Run 1 [1] [nM]	hIRA Phosph IC50 Run 2 [1] [nM]	hIRA Phosph IC50 Run 3 [1] [nM]	IC50 [1] [nM]	SMILES
99.3	97.0	117	83.7	10 fold	601	587	624	604	CC[C@H](C)[C@H](NC(=O)[C@H](CCC(N)=O)NC(=O)[C@H](C)NC(=O)[C@H](Cc1c[nH]c2ccccc12)NC(=O)[C@H](CCC(=O)O)NC(=O)[C@H](CCC(=O)O)NC(=O)[C@H](CCC(=O)O)NC(=O)[C@H](CC(C)C)NC(=O)[C@H](CO)NC(C)=O)C(=O)N[C@@H](CCC(=O)O)C(=O)N[C@H]1CSSC[C@@H](C(=O)N2CCC[C@H]2C(=O)N2CCC[C@H]2C(=O)N[C@@H](CO)C(=O)N[C@@H](CCC(=O)O)C(=O)N[C@@H](CO)C(N)=O)NC(=O)[C@H](CCCNC(=N)N)NC(=O)[C@H](C)NC(=O)[C@H](Cc2ccc(O)cc2)NC(=O)[C@H](C(C)C)NC(=O)[C@H](CCC(=O)O)NC1=O [Peptide G15A] (Ac-SLEEEWAQIECEVYARCPPSES-NH2; disulfide 11-17)
98	107	98	89.4	–	316	264	378	319	CC[C@H](C)[C@H](NC(=O)[C@H](CCC(N)=O)NC(=O)[C@H](C)NC(=O)[C@H](Cc1c[nH]c2ccccc12)NC(=O)[C@H](C)NC(=O)[C@H](CCC(=O)O)NC(=O)[C@H](CCC(=O)O)NC(=O)[C@H](CC(C)C)NC(=O)[C@H](CO)NC(C)=O)C(=O)N[C@@H](CCC(=O)O)C(=O)N[C@H]1CSSC[C@@H](C(=O)N2CCC[C@H]2C(=O)N2CCC[C@H]2C(=O)N[C@@H](CO)C(=O)N[C@@H](CCC(=O)O)C(=O)N[C@@H](CO)C(N)=O)NC(=O)[C@H](CCCNC(=N)N)NC(=O)CNC(=O)[C@H](Cc2ccc(O)cc2)NC(=O)[C@H](C(C)C)NC(=O)[C@H](CCC(=O)O)NC1=O [Peptide E5A] (Ac-SLEEAWAQIECEVYGRCPPSES-NH2; disulfide 11-17)
17.5	19.79	18.2	14.7	lower than 5 fold	147	122	132	134	CC[C@H](C)[C@H](NC(=O)[C@H](CCC(N)=O)NC(=O)[C@H](C)NC(=O)[C@H](Cc1c[nH]c2ccccc12)NC(=O)[C@H](CCC(=O)O)NC(=O)[C@H](CCC(=O)O)NC(=O)[C@H](CCC(=O)O)NC(=O)[C@H](CC(C)C)NC(=O)[C@H](CO)NC(C)=O)C(=O)N[C@@H](CCC(=O)O)C(=O)N[C@H]1CSSC[C@@H](C(=O)N2CCC[C@H]2C(=O)N2CCC[C@H]2C(=O)N[C@@H](CO)C(=O)N[C@@H](C)C(=O)N[C@@H](CO)C(N)=O)NC(=O)[C@H](CCCNC(=N)N)NC(=O)CNC(=O)[C@H](Cc2ccc(O)cc2)NC(=O)[C@H](C(C)C)NC(=O)[C@H](CCC(=O)O)NC1=O [Peptide E21A] (Ac-SLEEEWAQIECEVYGRCPPSAS-NH2; disulfide 11-17)
16.2	14.6	16.1	17.8	lower than 5 fold	78	103	88	89.8	CC[C@H](C)[C@H](NC(=O)[C@H](CCC(N)=O)NC(=O)[C@H](C)NC(=O)[C@H](Cc1c[nH]c2ccccc12)NC(=O)[C@H](CCC(=O)O)NC(=O)[C@H](CCC(=O)O)NC(=O)[C@H](CCC(=O)O)NC(=O)[C@H](CC(C)C)NC(=O)[C@H](CO)NC(C)=O)C(=O)N[C@@H](CCC(=O)O)C(=O)N[C@H]1CSSC[C@@H](C(=O)N2CCC[C@H]2C(=O)N2CCC[C@H]2C(=O)N[C@@H](CO)C(=O)N[C@@H](CCC(=O)O)C(=O)N[C@@H](C)C(N)=O)NC(=O)[C@H](CCCNC(=N)N)NC(=O)CNC(=O)[C@H](Cc2ccc(O)cc2)NC(=O)[C@H](C(C)C)NC(=O)[C@H](CCC(=O)O)NC1=O [Peptide S22A] (Ac-SLEEEWAQIECEVYGRCPPSEA-NH2; disulfide 11-17)

From publication PMC9519552, “Activation of the human insulin receptor by non-insulin-related peptides” (Nature Communications, 2022)
